The target of the assay is T1, Human CGRP1 Receptor (Homo sapiens, UniProt O60894+Q16602).
T1 construct: endogenous in cells; host or cells: SK-N-MC cells (membrane homogenate)
As to the kind of experiment: CGRP Binding Assay ([125I]-CGRP radioligand displacement, SK-N-MC membrane homogenate). The settings on record: [125I]-CGRP displacement, SK-N-MC homogenate, room temperature 2 h; read-out: Human CGRP1 Receptor IC50. As for the experimental part: Tissue Culture. SK-N-MC cells were grown at 37° C. in 5% CO2 as a monolayer in medium consisting of MEM with Earle's salts and L-glutamine (Gibco) supplemented with 10% fetal bovine serum (Gibco).
Cell Pellets. […] The cells were transferred from plates to polypropylene tubes (16×100 mm) and homogenized using a polytron. Homogenates were centrifuged at 32,000×g for 30 min. The pellets were resuspended in cold hypotonic lysis buffer with 0.1% mammalian protease inhibitor cocktail (Sigma) and assayed for protein concentration. The SK-N-MC homogenate was then aliquoted and stored at −80° C. until needed.
Radioligand Binding Assay. The compounds of invention were solubilized and carried through serial dilutions using 100% DMSO. Aliquots from the compound serial dilutions were further diluted 25 fold into assay buffer (50 mM Tris-Cl pH 7.5, 5 mM MgCl2, 0.005% Triton X-100) and transferred (volume 50 μl) into 96 well assay plates. […] SK-N-MC pellets were thawed, diluted in assay buffer with fresh 0.1% mammalian protease inhibitor cocktail (Sigma), and homogenized again. SK-N-MC homogenate (5 μg/well) was added in a volume of 100 μl. The assay plates were then incubated at room temperature for 2 h. Assays were stopped by addition of excess cold wash buffer (20 mM Tris-Cl pH 7.5, 0.1% BSA) immediately followed by filtration over glass fiber filters (Whatman GF/B) previously soaked in 0.5% PEI. Non-specific binding was defined with 1 μM beta-CGRP. Protein bound radioactivity was determined using a gamma or scintillation counter.
(In a radioligand displacement assay an active substance lowers the binding of a labelled ligand.)

SMILES strings stand for the structures.

T1 sequence (Q16602 23-461): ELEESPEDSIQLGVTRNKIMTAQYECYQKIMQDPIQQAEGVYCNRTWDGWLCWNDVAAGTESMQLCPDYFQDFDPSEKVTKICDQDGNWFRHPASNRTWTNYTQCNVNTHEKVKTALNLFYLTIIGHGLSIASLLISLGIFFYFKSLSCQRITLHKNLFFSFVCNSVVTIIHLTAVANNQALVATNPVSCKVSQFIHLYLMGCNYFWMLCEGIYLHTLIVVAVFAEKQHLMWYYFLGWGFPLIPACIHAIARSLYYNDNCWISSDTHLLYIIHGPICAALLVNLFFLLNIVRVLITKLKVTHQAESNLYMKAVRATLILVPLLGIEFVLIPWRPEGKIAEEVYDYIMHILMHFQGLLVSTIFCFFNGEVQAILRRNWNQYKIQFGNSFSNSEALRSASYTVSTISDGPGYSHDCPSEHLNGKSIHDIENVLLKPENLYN
T1 sequence (O60894 27-148): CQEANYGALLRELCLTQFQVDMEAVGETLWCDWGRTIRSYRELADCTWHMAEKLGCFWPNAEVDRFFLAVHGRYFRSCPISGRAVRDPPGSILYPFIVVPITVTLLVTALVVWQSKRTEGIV

Usually IC50 stands for the midpoint of a concentration-inhibition curve. For `Cc1cc(CC(CC(=O)N2CCC(N3Cc4ccccc4NC3=O)CC2)c2ccccn2)cc2cn[nH]c12` (racemic) [Example 1, (±)-3-{1-[4-(7-Methyl-1H-indazol-5-yl)-3-pyridin-2-yl-butyryl]-piperidin-4-yl}-3,4-dihydro-1H-quinazolin-2-one], the IC50 was below 0.01 µM.

As to `Cc1cc(CC(CC(=O)N2CCC(N3Cc4ccccc4NC3=O)CC2)c2nc(Cc3ccccc3)no2)cc2cn[nH]c12` (racemic) [Example 2, (±)-3-{1-[3-(3-Benzyl-[1,2,4]oxadiazol-5-yl)-4-(7-methyl-1H-indazol-5-yl)-butyryl]-piperidin-4-yl}-3,4-dihydro-1H-quinazolin-2-one], the IC50 was below 0.01 µM.

As for `Cc1cc(CC(CC(=O)N2CCC(N3Cc4ccccc4NC3=O)CC2)c2nc(CN3CCCCC3)no2)cc2cn[nH]c12` (racemic) [Example 3, (±)-3-{1-[4-(7-Methyl-1H-indazol-5-yl)-3-(3-piperidin-1-ylmethyl [1,2,4]oxadiazol-5-yl)-butyryl]-piperidin-4-yl}-3,4-dihydro-1H-quinazolin-2-one], the IC50 was 0.01 to 0.1 µM.

`Cc1cc(CC(CC(=O)N2CCC(N3Cc4ccccc4NC3=O)CC2)c2nc(-c3ccccc3)no2)cc2cn[nH]c12` (racemic) [Example 4, (±)-3-{1-[4-(7-Methyl-1H-indazol-5-yl)-3-(3-phenyl-[1,2,4]oxadiazol-5-yl)-butyryl]-piperidin-4-yl}-3,4-dihydro-1H-quinazolin-2-one]: the IC50 was in the range of 0.01 to 0.1 µM.

Take `Cc1noc(C(CC(=O)N2CCC(N3Cc4ccccc4NC3=O)CC2)Cc2cc(C)c3[nH]ncc3c2)n1` (racemic) [Example 5, (±)-3-{1-[4-(7-Methyl-1H-indazol-5-yl)-3-(3-methyl-[1,2,4]oxadiazol-5-yl)-butyryl]-piperidin-4-yl}-3,4-dihydro-1H-quinazolin-2-one]: the IC50 was 0.01 to 0.1 µM.

Turning to `Cc1cc(CC(CC(=O)N2CCC(N3Cc4ccccc4NC3=O)CC2)c2nc(Cc3ccncc3)no2)cc2cn[nH]c12` (racemic) [Example 6, (±)-3-{1-[4-(7-Methyl-1H-indazol-5-yl)-3-(3-pyridin-4-ylmethyl-[1,2,4]oxadiazol-5-yl)-butyryl]-piperidin-4-yl}-3,4-dihydro-1H-quinazolin-2-one], the IC50 was in the range of 0.01 to 0.1 µM.

In the case of `Cc1cc(CC(CC(=O)N2CCC(N3Cc4ccccc4NC3=O)CC2)c2nc(CN(C)C)no2)cc2cn[nH]c12` (racemic) [Example 7, (±)-3-{1-[3-(3-Dimethylaminomethyl-[1,2,4]oxadiazol-5-yl)-4-(7-methyl-1H-indazol-5-yl)-butyryl]-piperidin-4-yl}-3,4-dihydro-1H-quinazolin-2-one], the concentration for half-maximal inhibition (IC50) was in the range of 0.01 to 0.1 µM.

For `Cc1cc(CC(CC(=O)N2CCC3(CC2)OC(=O)Nc2ccccc23)c2nc(Cc3ccccc3)no2)cc2cn[nH]c12` (racemic) [Example 8, (±)-3-{1-[3-(3-Benzyl-[1,2,4]oxadiazol-5-yl)-4-(7-methyl-1H-indazol-5-yl)-butyryl]-4,4′-piperidinyl}-1′,2′-dihydro-2′-oxospiro-[4H-3′,1-benzoxazine], the concentration for half-maximal inhibition (IC50) was 0.01 to 0.1 µM.

As for `Cc1noc(C(CC(=O)N2CCC3(CC2)OC(=O)Nc2ccccc23)Cc2cc(C)c3[nH]ncc3c2)n1` (racemic) [Example 9, (±)-3-{1-[3-(3-Methyl-[1,2,4]oxadiazol-5-yl)-4-(7-methyl-1H-indazol-5-yl)-butyryl]-4,4′-piperidinyl}-1′,2′-dihydro-2′-oxospiro-[4H-3′,1-benzoxazine], the IC50 is 0.1 to 1 µM.

Take `Cc1cc(CC(NC(=O)N2CCC(N3Cc4ccccc4NC3=O)CC2)c2nc(Cc3ccccc3)no2)cc2cn[nH]c12` (racemic) [Example 10, (±)-4-(2-Oxo-1,4-dihydro-2H-quinazolin-3-yl)-piperidine-1-carboxylic acid [1-(3-benzyl-[1,2,4]oxadiazol-5-yl)-2-(7-methyl-1H-indazol-5-yl)-ethyl]-amide]: the IC50 was below 0.01 µM.

`Cc1noc(C(Cc2cc(C)c3[nH]ncc3c2)NC(=O)N2CCC(N3Cc4ccccc4NC3=O)CC2)n1` (racemic) [Example 11, (±)-4-(2-Oxo-1,4-dihydro-2H-quinazolin-3-yl)-piperidine-1-carboxylic acid [2-(7-methyl-1H-indazol-5-yl)-1-(3-methyl-[1,2,4]oxadiazol-5-yl)-ethyl]-amide]: the IC50 was in the range of 0.01 to 0.1 µM.

Take `Cc1cc(CC(NC(=O)N2CCC(N3Cc4ccccc4NC3=O)CC2)c2nc(Cc3ccncc3)no2)cc2cn[nH]c12` (racemic) [Example 12, (±)-4-(2-Oxo-1,4-dihydro-2H-quinazolin-3-yl)-piperidine-1-carboxylic acid [2-(7-methyl-1H-indazol-5-yl)-1-(3-pyridin-4-ylmethyl-[1,2,4]oxadiazol-5-yl)-ethyl]-amide]: the IC50 was in the range of 0.01 to 0.1 µM.

As to `Cc1cc(CC(NC(=O)N2CCC(N3Cc4ccccc4NC3=O)CC2)c2nc(CN(C)C)no2)cc2cn[nH]c12` (racemic) [Example 13, (±)-4-(2-Oxo-1,4-dihydro-2H-quinazolin-3-yl)-piperidine-1-carboxylic acid [1-(3-dimethylaminomethyl-[1,2,4]oxadiazol-5-yl)-2-(7-methyl-1H-indazol-5-yl)-ethyl]-amide], the half-maximal inhibitory concentration (IC50) is 0.1 to 1 µM.

Regarding `CCc1cc(CC(NC(=O)N2CCC(N3Cc4ccccc4NC3=O)CC2)c2nnn[nH]2)cc2c(C)n[nH]c12` (racemic) [Example 14, (±)-4-(2-Oxo-1,4-dihydro-2H-quinazolin-3-yl)-piperidine-1-carboxylic acid [2-(7-ethyl-3-methyl-1H-indazol-5-yl)-1-(1H-tetrazol-5-yl)-ethyl]-amide], the IC50 was in the range of 0.1 to 1 µM.

As to `CCc1cc(CC(NC(=O)N2CCC(N3Cc4ccccc4NC3=O)CC2)c2nnn(CCc3ccccc3)n2)cc2c(C)n[nH]c12` (racemic) [Example 16, (±)-4-(2-Oxo-1,4-dihydro-2H-quinazolin-3-yl)-piperidine-1-carboxylic acid [2-(7-ethyl-3-methyl-1H-indazol-5-yl)-1-(2-phenethyl-2H-tetrazol-5-yl)-ethyl]-amide], the IC50 was in the range of 0.01 to 0.1 µM.

For the molecule `CCc1cc(CC(NC(=O)N2CCC(N3Cc4ccccc4NC3=O)CC2)c2nnnn2C)cc2c(C)n[nH]c12` (racemic) [Example 17, (±)-4-(2-Oxo-1,4-dihydro-2H-quinazolin-3-yl)-piperidine-1-carboxylic acid [2-(7-ethyl-3-methyl-1H-indazol-5-yl)-1-(1-methyl-1H-tetrazol-5-yl)-ethyl]-amide], the IC50 was in the range of 0.01 to 0.1 µM.

Turning to `CCc1cc(CC(NC(=O)N2CCC(N3Cc4ccccc4NC3=O)CC2)c2nnn(CC(=O)c3ccccc3)n2)cc2c(C)n[nH]c12` (racemic) [Example 20, (±)-4-(2-Oxo-1,4-dihydro-2H-quinazolin-3-yl)-piperidine-1-carboxylic acid [2-(7-ethyl-3-methyl-1H-indazol-5-yl)-1-(2-oxo-2Phenethyl-2H-tetrazol-5-yl)-ethyl]-amide], the half-inhibitory concentration (IC50) lay in the range of 0.01 to 0.1 µM.

Regarding `CCc1cc(CC(NC(=O)N2CCC(N3Cc4ccccc4NC3=O)CC2)c2nnnn2CC(=O)c2ccccc2)cc2c(C)n[nH]c12` (racemic) [Example 21, (±)-4-(2-Oxo-1,4-dihydro-2H-quinazolin-3-yl)-piperidine-1-carboxylicacid [2-(7-ethyl-3-methyl-1H-indazol-5-yl)-1-[1-(2-oxo-2-phenyl-ethyl)-1H-tetrazol-5-yl)-ethyl]-amide], the IC50 was in the range of 0.01 to 0.1 µM.

In the case of `CCc1ccnc(C(CC(=O)N2CCC(N3Cc4ccccc4NC3=O)CC2)Cc2cc(C)c3[nH]ncc3c2)c1` (racemic) [Example 22, (±)-3-(1-(3-(4-Ethylpyridin-2-yl)-4-(7-methyl-1H-indazol-5-yl)butanoyl)piperidin-4-yl)-3,4-dihydroquinazolin-2(1H)-one], the IC50 lay in the range of 0.01 to 0.1 µM.

Turning to `Cc1cc(CC(CC(=O)N2CCC(N3Cc4cccc(F)c4NC3=O)CC2)c2ccccn2)cc2cn[nH]c12` (racemic) [Example 23, (±)-8-Fluoro-3-(1-(4-(7-methyl-1H-indazol-5-yl)-3-(pyridin-2-yl)butanoyl)piperidin-4-yl)-3,4-dihydroquinazolin-2(1H)-one], the IC50 is 0.01 to 0.1 µM.

Take `Cc1cc(CC(CC(=O)N2CCC(c3cc4ccccc4[nH]c3=O)CC2)c2ccccn2)cc2cn[nH]c12` (racemic) [Example 24, (±)-3-(1-(4-(7-Methyl-1H-indazol-5-yl)-3-(pyridin-2-yl)butanoyl)piperidin-4-yl)quinolin-2(1H)-one]: the IC50 was 0.01 to 0.1 µM.

For the molecule `Cc1cccnc1C(CC(=O)N1CCC(N2Cc3ccccc3NC2=O)CC1)Cc1cc(C)c2[nH]ncc2c1` (racemic) [Example 25, (±)-3-(1-(4-(7-Methyl-1H-indazol-5-yl)-3-(3-methylpyridin-2-yl)butanoyl)piperidin-4-yl)-3,4-dihydroquinazolin-2(1H)-one], the IC50 was below 0.01 µM.

For the molecule `Cc1ccc(C(CC(=O)N2CCC(N3Cc4ccccc4NC3=O)CC2)Cc2cc(C)c3[nH]ncc3c2)nc1` (racemic) [Example 26, (±)-3-(1-(4-(7-Methyl-1H-indazol-5-yl)-3-(5-methylpyridin-2-yl)butanoyl)piperidin-4-yl)-3,4-dihydroquinazolin-2(1H)-one], the IC50 lay in the range of 0.01 to 0.1 µM.

The values are drawn from patent publication US7569578B2, “Heterocyclic anti-migraine agents” (Bristol-Meyers Squibb Company, priority 2003, dated 2009).
